Assay results taken from patent US20240059740A1, “CYCLIC PEPTIDES AND USES THEREOF” (PRE[…] INC., priority 2020, published 2024).
Residues, ends and D or L forms follow the SMILES beside them.

How the values were obtained:
MMP-9 = assay: Gelatin zymography of conditioned media, MMP-9 production; type: cell-based, human; conditions: compared to control containing no peptide
Source text: To assess whether the peptide SEQ ID NO.1 impacted MMP-2, MMP-9 and uPA production Zymography was used.
Zymography is a technique for studying hydrolytic enzymes on the basis of substrate degradation. The in-gel zymography hydrolytic enzymes are separated by their molecular weights and detected by their ability to degrade a substrate. To detect the activity of MMP-2 and MMP-9 in various cell lines, conditioned media were collected in 3 independent experiments and analysed by gelatin zymography to quantify the level of gelatin digestion, which reflects MMP-2 and MMP-9 activity and production. Casein-Plasminogen zymography was conducted to determine the activity level of uPA in the conditioned medium from various cell lines. Active uPA converts plasminogen into plasmin which then digests casein, thus clear bands where digestion of casein have occurred indirectly represent uPA activity.
The effect of the peptides on matrix protease production was tested using in-gel zymography. If the substrate included in the gel is gelatin, the enzymes detected are gelatinases: MMP-2 and MMP-9 (the latter is often of low abundance). If the gel contains casein and plasminogen, the enzymes tested are urokinase plasminogen activators (uPA); uPA is a therapeutic target in GBM.
An equal amount of protein from each sample was mixed with 5 μL of Laemmli buffer (0.01% Bromophenol Blue (W/V), 5% SDS (W/V), 22% glycerol (V/V), 14% 0.5 M Tris pH 6.8 (V/V)) and loaded onto a 10% polyacrylamide gel co-polymerized with 1 mg/ml of gelatin, and electrophoresed at 120 V for 2 hours on ice. The gel was incubated in […] solution (Triton X-100 2.5% (V/V), 1 M Tris pH 7.5 5% (V/V), 0.5 M CaCl2 1% (W/V) at room temperature overnight on an orbital shaker. The gel was incubated in a second solution for 3 hours at 37° C. The gel was then stained with Coomassie blue solution (Coomassie blue 0.25%, methanol 45%, acetic acid 10%) and destained in methanol 25% (V/V), acetic acid 10% (V/V) destaining solution until clear bands against the dark background appeared around 72 kDa and 95 kDa, representing MMP-2 and MMP-9 activity, respectively. Clear bands around 50 kDa appeared against the dark background representing uPA activity. The gels were scanned, and uPA, MMP-2 and MMP-9 were quantified by densitometry using NIH Image J software.
SEQ ID NO.1 was compared to a control containing no peptide to evaluate whether the peptide can reduce the production of matrix proteinases. A reduction in the production of matrix proteinases may be anticipated to result in comparatively less degradation of the extra-cellular matrix and so this could be one pathway by which the invasion potential could be reduced. […] This could be confirmed using a MMP-9 quantification kit, and altered production by a transcriptional mechanism can be unveiled using qRT-PCR.

081024 cells = assay: BME cell invasion assay, 081024; type: cell-based, human; conditions: 24 h
Experimental: To assess whether the ability of SEQ ID NO.1 to inhibit MMP-2 activity and, to a lesser extent, reduce the production of matrix proteinases and downregulate the expression of EMT markers, was of functional consequence in reducing the invasiveness of the GBM cells, the ability of the peptide was tested at the concentrations of 1, 10 and 100 μM (none of which are toxic to cells) to inhibit invasion of the GBM cells through a basement membrane. This assay, described in more detail below, is an in vitro surrogate for measurement of the in vivo invasion by tumour cells of their environment.
The cell invasion assay employs a simplified Boyden chamber-like design that consists of two chambers separated by a filter (an 8 μm polycarbonate (PC) membrane) coated with basement membrane or different extracellular matrix components. The cell suspension is placed in the top chamber and incubated in the presence of test media containing specific chemo-attractants in the bottom chamber. Cells migrate from the top chamber to the bottom of the filter by degrading the coating over the filter pores. Detection of cell invasion is quantified using Calcein AM. Cell dissociation/Calcein AM solution is placed in the bottom chamber to dissociate the migrating cells from the filter. Calcein AM is internalized by the cells, and intracellular-esterases cleave the aceto-methylester (AM) moiety. Free Calcein fluoresces brightly and is used to quantitate the number of cells that have invaded or migrated by comparison with a standard curve (In Vitro Technologies Pty Ltd, (https://lifescience.invitro.com.au/brands/r-and-d-systems/).
The filter was coated with PathClear® growth factor reduced BME. The selected peptides were applied to the cells in both upper and lower wells to make sure the concentration of peptides were the same and the chemoattractant was serum at a concentration of 2% (for adherent U87 & U251 cells) or growth factor mix required in the medium (for non- adherent, 081024 oncospheres).
Cell invasion was determined using CultureCoat® 96 Well Medium BME Cell Invasion assay. Briefly, the cells were pre-starved 24 h before harvest. Then seeding 25,000 per well of cell in the upper chamber with serum free medium together different concentration of peptide. The bottom chamber also added different concentration of peptides with 2% (V/V) serum for GBM adherent cells or growth factor mix for neurosphere cells as chemoattractant. After 24 h incubation, the invading cells were measured by Calcein AM and calculated based on standard curve.
The results are shown in Table 12, the results are expressed as % inhibition.

Compound: CC(C)C[C@@H]1NC(=O)[C@H](C)NC(=O)[C@@H](NC(=O)[C@@H]2CCCN2C(=O)[C@@H](N)CC(C)C)CSSC(C)(C)CNC(=O)CC[C@@H](C(=O)N[C@@H](CCCNC(=N)N)C(N)=O)NC(=O)[C@H](CC(=O)O)NC(=O)[C@H](CC(N)=O)NC1=O [SEQ ID NO: 1, Leu-Pro-c(SSA*-Ala-Leu-Asn-Asp-Glu)-Arg-NH2] (HELM PEPTIDE1{L.P.C.A.L.N.D.E.R.[am]}|CHEM1{[CC(C)(CN[*:2])S[*:1]]}$PEPTIDE1,CHEM1,3:R3-1:R1|PEPTIDE1,CHEM1,8:R3-1:R2$$$V2.0; N-terminus assumed)
- metalloprotease production, MMP-9 (MMP-9; 081024 cells): 98.96
- metalloprotease production, MMP-9 (MMP-9; U87 cells, listed as SEQ ID NO. 1): 58.61
- metalloprotease production, MMP-9 (MMP-9; U87 cells, listed as SEQ ID NO.1): decreased production
- metalloprotease production, MMP-9 (MMP-9; U251 cells, listed as SEQ ID NO. 1): 63.4
- metalloprotease production, MMP-9 (MMP-9; U251 cells, listed as SEQ ID NO.1): decreased production
- Invasion Inhibition Index (%) (081024 cells; 1 μM, listed as SEQ ID NO. 1): 39.9%
- Invasion Inhibition Index (%) (081024 cells; 1 μM, listed as SEQ ID NO.1): fairly comparable to that of Chlorotoxin
- Invasion Inhibition Index (%) (081024 cells; 10 μM): 50.8%
- Invasion Inhibition Index (%) (081024 cells; 100 μM): 58.3%
